From PMC12858405, “Ideal efficacy photoswitching for chromocontrol of TRPC4/5 channel functions in live tissues” (Nature Chemical Biology, 2026)

Biological target: T1, TRPC4β-SYFP2 (Homo sapiens, UniProt Q9UBN4)
T1 construct: expressed in transfected cells; host or cells: HEK 293 (ATCC CRL 1573), transiently transfected (jetPRIME)
T1 sequence (Q9UBN4 1-893 isoform Q9UBN4-2): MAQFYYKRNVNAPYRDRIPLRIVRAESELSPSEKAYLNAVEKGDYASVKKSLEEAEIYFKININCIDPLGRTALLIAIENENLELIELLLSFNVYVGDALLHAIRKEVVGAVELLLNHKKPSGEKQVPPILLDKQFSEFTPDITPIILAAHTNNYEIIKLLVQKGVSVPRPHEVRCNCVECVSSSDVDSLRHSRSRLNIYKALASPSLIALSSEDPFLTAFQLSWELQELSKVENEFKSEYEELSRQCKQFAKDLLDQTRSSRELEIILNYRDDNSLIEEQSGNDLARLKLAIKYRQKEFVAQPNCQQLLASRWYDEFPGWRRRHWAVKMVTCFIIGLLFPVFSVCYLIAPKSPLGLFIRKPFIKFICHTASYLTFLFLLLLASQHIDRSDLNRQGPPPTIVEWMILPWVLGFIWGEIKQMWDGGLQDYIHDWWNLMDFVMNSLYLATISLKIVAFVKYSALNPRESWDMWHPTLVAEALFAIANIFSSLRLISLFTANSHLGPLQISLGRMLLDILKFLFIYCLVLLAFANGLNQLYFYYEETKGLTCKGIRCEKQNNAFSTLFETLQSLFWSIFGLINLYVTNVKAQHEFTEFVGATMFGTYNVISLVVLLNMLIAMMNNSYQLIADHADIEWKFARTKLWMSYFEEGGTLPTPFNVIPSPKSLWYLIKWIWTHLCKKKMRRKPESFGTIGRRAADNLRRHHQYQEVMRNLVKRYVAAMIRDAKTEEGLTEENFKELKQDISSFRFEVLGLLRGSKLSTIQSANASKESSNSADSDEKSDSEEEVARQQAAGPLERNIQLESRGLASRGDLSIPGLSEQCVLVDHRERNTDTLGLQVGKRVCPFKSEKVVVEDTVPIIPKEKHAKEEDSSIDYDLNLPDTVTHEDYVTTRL
Assay: Fura-2 [Ca2+]i recordings, HEK 293 transiently expressing TRPC4β-SYFP2
Type: cell-based
Conditions: AzHC 10-1000 nM, AM237 100 nM
Source text: Müller, Niemeyer, et al., Schaefer & Thorn-Seshold 2025: Ideal Efficacy Photoswitching of TRPC4/5 in Tissue […]
1.4.4 Differences and selectivity between TRPC5 and TRPC4?
AM237 activates TRPC5 but inhibits EA mediated activation of TRPC4; Pico145 inhibits both TRPC4 and TRPC5. Thus, somewhat naively, it could be argued that it is the para substituent here which affects both the efficacy mode and the selectivity for TRPC4 and/or TRPC5.
Intriguingly, Z-AzPico activates TRPC4 and TRPC5 with low nanomolar potency whereas Z-AzHC only activates TRPC5 but not TRPC4. Therefore, the meta substituent is now responsible for the selectivity in this case. The cryo-EM structures of Pico145 and HC-070 in complex with TRPC5 indicated the same binding site but the southern phenyl ring bearing the OCF3/Cl group is flipped and pointing in opposite directions.
Z isomers, i.e. Z-buried vs. E-projected. Additionally, both E-AzPico and E-AzHC inhibit EA […]
It is not surprising that both ligands bind to either protein because there is a high sequence similarity among the TRPC family in the identified binding pocket for Pico145 /HC-070, and in the binding region, human TRPC4/5 differ only by a single amino acid (TRPC5: V579, TRPC4: I579). We […]
the result of differences in this residue. […]
Intracellular calcium ([Ca2+]i) was measured using the ratiometric Ca2+ dye Fura-2. […]

Cn1c(=O)n(CCCO)c(=O)c2c1nc(Oc1ccc(Cl)c(OC(F)(F)F)c1)n2Cc1ccc(Cl)cc1 [AM237, reference compound]
Effect on [Ca2+]i, TRPC4: do not activate

Cn1c(=O)n(CCCO)c(=O)c2c1nc(Oc1ccc(/N=N\c3ccccc3)c(Cl)c1)n2Cc1ccc(Cl)cc1 [Z*-AzHC]
Effect on [Ca2+]i, TRPC4: do not activate
